In patent publication US20080262040A1, “Chemical Compounds” (SMITHKLINE BEECHAM CORPORATION, priority 2005, published 2008):

molecular target: T1, Recombinant human IKKβ (residues 1-737) (IKK2) (Homo sapiens, UniProt O14920); assay: IKK2 TR-FRET assay; format: biochemical; conditions: IKK2 5 nM, GST-IκBα 25 nM, ATP 1 μM, 30 minutes at room temperature, read-out: pIC50 against IKK2 (converted)
T1 construct: Recombinant human IKKβ (residues 1-737) was expressed in baculovirus; GST (C); made in house
T1 sequence (O14920 1-737): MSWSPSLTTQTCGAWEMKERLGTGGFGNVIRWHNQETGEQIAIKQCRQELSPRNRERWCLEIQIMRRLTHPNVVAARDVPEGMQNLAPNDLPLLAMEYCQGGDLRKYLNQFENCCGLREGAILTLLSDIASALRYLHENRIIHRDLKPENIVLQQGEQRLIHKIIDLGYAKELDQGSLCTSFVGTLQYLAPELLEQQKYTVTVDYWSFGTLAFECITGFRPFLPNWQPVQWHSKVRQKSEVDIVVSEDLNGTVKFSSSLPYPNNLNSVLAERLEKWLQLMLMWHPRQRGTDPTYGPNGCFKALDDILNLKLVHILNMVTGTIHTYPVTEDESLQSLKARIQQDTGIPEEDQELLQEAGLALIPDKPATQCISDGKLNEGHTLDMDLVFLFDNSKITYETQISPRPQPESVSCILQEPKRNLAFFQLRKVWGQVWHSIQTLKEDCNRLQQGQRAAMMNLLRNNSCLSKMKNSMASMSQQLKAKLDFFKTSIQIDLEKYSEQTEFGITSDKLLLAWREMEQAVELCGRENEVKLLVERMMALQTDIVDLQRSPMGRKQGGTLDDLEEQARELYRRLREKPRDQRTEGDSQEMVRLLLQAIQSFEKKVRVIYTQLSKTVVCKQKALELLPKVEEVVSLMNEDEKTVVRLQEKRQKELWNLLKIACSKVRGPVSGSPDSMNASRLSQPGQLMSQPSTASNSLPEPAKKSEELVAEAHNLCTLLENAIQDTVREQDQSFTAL
Method: Recombinant human IKKβ (residues 1-737) was expressed in baculovirus as a C-terminal GST-tagged fusion protein, and its activity was assessed using a time-resolved fluorescence resonance energy transfer (TR-FRET) assay. Briefly, IKK2 (5 nM final) diluted in assay buffer (50 mM HEPES, 10 mM MgCl2, 1 mM CHAPS pH 7.4 with 1 mM DTT and 0.01% w/v BSA) was added to wells containing various concentrations of compound or DMSO vehicle (3% final). The reaction was initiated by the addition of GST-IκBα substrate (25 nM final)/ATP (1 μM final), in a total volume of 30 μl. The reaction was incubated for 30 minutes at room temperature, then terminated by the addition of 15 μl of 50 mM EDTA. Detection reagent (15 μl) in buffer (100 mM HEPES pH 7.4, 150 mM NaCl and 0.1% w/v BSA) containing antiphosphoserine-IκBα-32/36 monoclonal antibody 12C2 (Cell Signalling Technology, Beverly Mass., USA) labelled with W-1024 europium chelate (Wallac O Y, Turku, Finland), and an APC-labelled anti-GST antibody (Prozyme, San Leandro, Calif., USA) was added and the reaction was further incubated for 60 minutes at room temperature. The degree of phosphorylation of GST-IκBα was measured using a Packard Discovery plate reader (Perkin-Elmer Life Sciences, Pangbourne, UK) as a ratio of specific 665 nm energy transfer signal to reference europium 620 nm signal.

| IC50 | SMILES |
| --- | --- |
| ≤ 10 µM | CC(C)(C)OC(=O)N1CCC(n2ncc3c(C(N)=O)cc(-c4ccccc4)cc32)CC1 [Example 1, 1,1-dimethylethyl-4-[4-(aminocarbonyl)-6-phenyl-1H-indazol-1-yl]-1-piperidinecarboxylate] |
| ≤ 10 µM | CCC(=O)N1CCC(n2ncc3c(C(N)=O)cc(-c4ccccc4)cc32)CC1 [Example 6, 6-phenyl-1-(1-propanoyl-4-piperidinyl)-1H-indazole-4-carboxamide] |
| ≤ 10 µM | NC(=O)c1cc(-c2ccccc2)cc2c1cnn2C1CCN(C(=O)c2ccccc2)CC1 [Example 8, 6-phenyl-1-[1-(phenylcarbonyl)-4-piperidinyl]-1H-indazole-4-carboxamide] |
| ≤ 10 µM | NC(=O)c1cc(-c2ccccc2)cc2c1cnn2C1CCN(S(=O)(=O)c2ccccc2)CC1 [Example 9, 6-phenyl-1-[1-(phenylsulfonyl)-4-piperidinyl]-1H-indazole-4-carboxamide] |
| > 15.8 µM | NC(=O)c1cc(-c2ccccc2)cc2c1cnn2C1CCCN(C(=O)c2ccccc2)C1 (stereo not shown) [Example 17, 6-phenyl-1-[1-(phenylcarbonyl)-3-piperidinyl]-1H-indazole-4-carboxamide] |
| > 15.8 µM | NC(=O)c1cc(-c2ccccc2)cc2c1cnn2C1CCCN(S(=O)(=O)c2ccccc2)C1 (stereo not shown) [Example 18, 6-phenyl-1-[1-(phenylsulfonyl)-3-piperidinyl]-1H-indazole-4-carboxamide] |

The remaining lines, values behind:

| SMILES | IC50 |
| --- | --- |
| NC(=O)c1cc(-c2ccccc2)cc2c1cnn2C1CCNCC1 [Example 2, 6-phenyl-1-(4-piperidinyl)-1H-indazole-4-carboxamide] | ≤ 10 µM |
| NC(=O)c1cc(-c2ccccc2)cc2[nH]ncc12 [Example 3, 6-phenyl-1H-indazole-4-carboxamide] | ≤ 10 µM |
| NC(=O)c1cc(-c2ccccc2)cc2c1cnn2C1CCN(S(=O)(=O)c2ccc(F)cc2)CC1 [Example 4, 1-{1-[(4-fluorophenyl)sulfonyl]-4-piperidinyl}-6-phenyl-1H-indazole-4-carboxamide] | ≤ 10 µM |
| Cn1cnc(S(=O)(=O)N2CCC(n3ncc4c(C(N)=O)cc(-c5ccccc5)cc43)CC2)c1 [Example 5, 1-{1-[(1-methyl-1H-imidazol-4-yl)sulfonyl]-4-piperidinyl}-6-phenyl-1H-indazole-4-carboxamide] | ≤ 10 µM |
| CCS(=O)(=O)N1CCC(n2ncc3c(C(N)=O)cc(-c4ccccc4)cc32)CC1 [Example 7, 1-[1-(ethylsulfonyl)-4-piperidinyl]-6-phenyl-1H-indazole-4-carboxamide] | ≤ 10 µM |
| CC(C)(C)OC(=O)N1CCCC(n2ncc3c(C(N)=O)cc(-c4ccccc4)cc32)C1 (stereo not shown) [Example 12, 1,1-dimethylethyl-3-[4-(aminocarbonyl)-6-phenyl-1H-indazol-1-yl]-1-piperidinecarboxylate] | ≤ 10 µM |
| CCS(=O)(=O)N1CCCC(n2ncc3c(C(N)=O)cc(-c4ccccc4)cc32)C1 (stereo not shown) [Example 14, 1-[1-(ethylsulfonyl)-3-piperidinyl]-6-phenyl-1H-indazole-4-carboxamide] | ≤ 10 µM |
| Cn1cnc(S(=O)(=O)N2CCCC(n3ncc4c(C(N)=O)cc(-c5ccccc5)cc43)C2)c1 (stereo not shown) [Example 15, 1-{1-[(1-methyl-1H-imidazol-4-yl)sulfonyl]-3-piperidinyl}-6-phenyl-1H-indazole-4-carboxamide] | > 15.8 µM |
| CCC(=O)N1CCCC(n2ncc3c(C(N)=O)cc(-c4ccccc4)cc32)C1 (stereo not shown) [Example 16, 6-phenyl-1-(1-propanoyl-3-piperidinyl)-1H-indazole-4-carboxamide] | > 15.8 µM |
| NC(=O)c1cc(-c2ccccc2)cc2c1cnn2C1CCCN(S(=O)(=O)c2ccc(F)cc2)C1 (stereo not shown) [Example 19, 1-{1-[(4-fluorophenyl)sulfonyl]-3-piperidinyl}-6-phenyl-1H-indazole-4-carboxamide] | > 15.8 µM |
